Laboratory results taken from PubChem BioAssay AID330 (DTP/NCI, 2004).
“And” between values parts separate entries of the source, which are not always exact repeats. Equal entries are not always repeated. Toxic doses and inconclusive results are not listed. How the source made its calls: active means survival T/C of 150% or more; inactive means T/C below 125% in these data. Square brackets hold non-standard residues; d marks the D form. Peptide text beside a SMILES is read from it. * marks the point of attachment. Cbz = O=C(OCc1ccccc1)*; Nva = CCC[CH](N)C(=O)O

Tested on: P388 leukemia ip, CD2F1 mice, survival T/C
Test: NCI In Vivo Anticancer Drug Screen. Data for tumor model P388 Leukemia (intraperitoneal) in CD2F1 (CDF1) mice
Settings: endpoint: median survival time, higher = longer survival
In short: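 Mice carrying the transplanted tumor received test compound or vehicle. Survival was recorded in each group, and the value is the treated-group measurement divided by that of the vehicle-treated control group.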

[1] = dose: 3.12 mg/kg/injection, schedule: Q01DX009 (ip), vehicle: saline
[2] = dose: 50.0 mg/kg/injection, schedule: Q01DX005 (ip), vehicle: saline with Tween-80
[3] = dose: 100.0 mg/kg/injection, schedule: Q01DX005 (ip), vehicle: saline with Tween-80
[4] = dose: 200.0 mg/kg/injection, schedule: Q01DX005 (ip), vehicle: saline with Tween-80
[5] = dose: 25.0 mg/kg/injection, schedule: Q01DX009 (ip), vehicle: Klucel (hydroxypropylcellulose) (HPC)
[6] = dose: 50.0 mg/kg/injection, schedule: Q01DX009 (ip), vehicle: Klucel (hydroxypropylcellulose) (HPC)
[7] = dose: 100.0 mg/kg/injection, schedule: Q01DX009 (ip), vehicle: Klucel (hydroxypropylcellulose) (HPC)
[8] = dose: 200.0 mg/kg/injection, schedule: Q01DX009 (ip), vehicle: Klucel (hydroxypropylcellulose) (HPC)
[9] = dose: 60.0 mg/kg/injection, schedule: Q01DX005 (ip), vehicle: saline with Tween-80
[10] = dose: 120.0 mg/kg/injection, schedule: Q01DX005 (ip), vehicle: saline with Tween-80
[11] = dose: 50.0 mg/kg/injection, schedule: Q01DX005 (ip), vehicle: Klucel (hydroxypropylcellulose) (HPC)
[12] = dose: 100.0 mg/kg/injection, schedule: Q01DX005 (ip), vehicle: Klucel (hydroxypropylcellulose) (HPC)
[13] = dose: 200.0 mg/kg/injection, schedule: Q01DX005 (ip), vehicle: Klucel (hydroxypropylcellulose) (HPC)
[14] = dose: 240.0 mg/kg/injection, schedule: Q01DX005 (ip), vehicle: saline with Tween-80
[15] = dose: 50.0 mg/kg/injection, schedule: Q01DX009 (ip), vehicle: saline with Tween-80
[16] = dose: 100.0 mg/kg/injection, schedule: Q01DX009 (ip), vehicle: saline with Tween-80
[17] = dose: 200.0 mg/kg/injection, schedule: Q01DX009 (ip), vehicle: saline with Tween-80
[18] = dose: 25.0 mg/kg/injection, schedule: Q01DX009 (ip), vehicle: saline with Tween-80
[19] = dose: 50.0 mg/kg/injection, schedule: Q01DX005 (ip), vehicle: saline
[20] = dose: 100.0 mg/kg/injection, schedule: Q01DX005 (ip), vehicle: saline
[21] = dose: 200.0 mg/kg/injection, schedule: Q01DX005 (ip), vehicle: saline

Measured: T/C

c1ccc([P+](CCN2Cc3ccccc3C2)(c2ccccc2)c2ccccc2)cc1
inactive: dose: 0.78 mg/kg/injection, schedule: Q01DX009 (ip), vehicle: other 119 % of control | dose: 0.78 mg/kg/injection, schedule: Q01DX009 (ip), vehicle: saline 101 % of control | dose: 1.56 mg/kg/injection, schedule: Q01DX009 (ip), vehicle: other 110 % of control | dose: 1.56 mg/kg/injection, schedule: Q01DX009 (ip), vehicle: saline 101 % of control | [1] 107 % of control | dose: 3.13 mg/kg/injection, schedule: Q01DX009 (ip), vehicle: other 114 % of control | dose: 3.13 mg/kg/injection, schedule: Q01DX009 (ip), vehicle: saline 105 % of control | dose: 6.25 mg/kg/injection, schedule: Q01DX009 (ip), vehicle: other 118 % of control | dose: 6.25 mg/kg/injection, schedule: Q01DX009 (ip), vehicle: saline 109 % of control and 119 % of control | dose: 12.5 mg/kg/injection, schedule: Q01DX009 (ip), vehicle: other 108 % of control | dose: 12.5 mg/kg/injection, schedule: Q01DX009 (ip), vehicle: saline 120 % of control and 122 % of control | dose: 25.0 mg/kg/injection, schedule: Q01DX009 (ip), vehicle: other 88 % of control

CCCCCCCCCCCCCCCC[N+](C)(C)CCNC(=O)c1ccccc1
inactive: dose: 3.12 mg/kg/injection, schedule: Q01DX009 (ip), vehicle: water 101 % of control | dose: 6.25 mg/kg/injection, schedule: Q01DX009 (ip), vehicle: water 106 % of control | dose: 12.5 mg/kg/injection, schedule: Q01DX009 (ip), vehicle: water 99 % of control and 101 % of control

Brc1cccc2[s+]snc12
inactive: [2] 101 % of control | [3] 105 % of control | [4] 97 % of control

COc1ccccc1NC(N)=S
inactive: [5] 96 % of control | [6] 98 % of control | [7] 96 % of control | [8] 97 % of control

O=C1OCCc2c1[nH]c1ccccc21
inactive: dose: 100.0 mg/kg/injection, schedule: Q04DX002 (ip), vehicle: saline with Tween-80 100 % of control | dose: 200.0 mg/kg/injection, schedule: Q04DX002 (ip), vehicle: saline with Tween-80 100 % of control

CC1(C)OC2(C)CCC1C1C2N1C(=O)C1CC1 (stereo not drawn)
inactive: [2] 97 % of control | [3] 104 % of control | [4] 105 % of control

[Cl][Sn]([c]1cccc2ccccc12)[c]1cccc2ccccc12
inactive: dose: 1.56 mg/kg/injection, schedule: Q01DX005 (ip), vehicle: Klucel (hydroxypropylcellulose) (HPC) 101 % of control | dose: 3.12 mg/kg/injection, schedule: Q01DX005 (ip), vehicle: Klucel (hydroxypropylcellulose) (HPC) 120 % of control | dose: 6.25 mg/kg/injection, schedule: Q01DX005 (ip), vehicle: Klucel (hydroxypropylcellulose) (HPC) 124 % of control | dose: 12.5 mg/kg/injection, schedule: Q01DX005 (ip), vehicle: Klucel (hydroxypropylcellulose) (HPC) 109 % of control

CCOC(=O)C(C(C)=O)C(c1cc(OC)c(OC)c(OC)c1)c1cc2c(cc1O)OCO2 (stereo not drawn)
inactive: dose: 15.0 mg/kg/injection, schedule: Q01DX005 (ip), vehicle: saline with Tween-80 95 % of control | dose: 30.0 mg/kg/injection, schedule: Q01DX005 (ip), vehicle: saline with Tween-80 90 % of control | [9] 89 % of control and 92 % of control | [10] 100 % of control and 93 % of control

CCCC(NC(=O)OCc1ccccc1)C(=O)NC(CC(C)C)C(N)=O (stereo not drawn) (Cbz-[Nva]-Leu-NH2; configuration not given here)
inactive: [11] 112 % of control | [12] 100 % of control | [13] 100 % of control

CSc1nnc2nc3c4ccccc4c4ccccc4c3nn12
inactive: dose: 50.0 mg/kg/injection, schedule: Q04DX002 (ip), vehicle: suspension in saline 100 % of control | dose: 100.0 mg/kg/injection, schedule: Q04DX002 (ip), vehicle: suspension in saline 100 % of control | dose: 200.0 mg/kg/injection, schedule: Q04DX002 (ip), vehicle: suspension in saline 98 % of control

CSC(=NC(=O)c1c(Cl)cccc1Cl)SC
inactive: [9] 102 % of control | [10] 100 % of control | [14] 90 % of control

C=C/C=C/NC(=O)OCc1ccccc1
inactive: [15] 100 % of control | [16] 105 % of control | [17] 102 % of control

Nc1ncnc2c1ccn2COCCOP(=O)(O)O
inactive: dose: 50.0 mg/kg/injection, schedule: Q01DX005 (ip), vehicle: distilled water + alcohol 105 % of control | dose: 100.0 mg/kg/injection, schedule: Q01DX005 (ip), vehicle: distilled water + alcohol 100 % of control | dose: 200.0 mg/kg/injection, schedule: Q01DX005 (ip), vehicle: distilled water + alcohol 98 % of control

COc1ccccc1/C=N/Nc1ccc2ccccc2n1
inactive: dose: 50.0 mg/kg/injection, schedule: Q04DX003 (ip), vehicle: saline with Tween-80 93 % of control | dose: 100.0 mg/kg/injection, schedule: Q04DX003 (ip), vehicle: saline with Tween-80 90 % of control | dose: 200.0 mg/kg/injection, schedule: Q04DX003 (ip), vehicle: saline with Tween-80 90 % of control

COc1ccc2c(C)cc(=O)oc2c1OCC(O)CN1CCOCC1 (stereo not drawn)
inactive: dose: 60.0 mg/kg/injection, schedule: Q01DX005 (ip), vehicle: saline 110 % of control | dose: 120.0 mg/kg/injection, schedule: Q01DX005 (ip), vehicle: saline 104 % of control | dose: 240.0 mg/kg/injection, schedule: Q01DX005 (ip), vehicle: saline 103 % of control

COc1ccc(/C=c2\sc3nc(-c4ccccc4)nn3c2=O)cc1
inactive: [6] 98 % of control | [7] 98 % of control

CC(=O)Nc1ccc(C(/C=N\NC(N)=S)=N/NC(N)=S)cc1
inactive: [18] 99 % of control | [15] 97 % of control | [16] 105 % of control

CCC(=O)Cc1nc2nnc(N)n2nc1CC(=O)CC
inactive: [19] 100 % of control | [20] 107 % of control | [21] 98 % of control

O=S(=O)(Nc1ncccn1)c1ccc(NCc2c3ccccc3nc3cc(Cl)ccc23)cc1
inactive: [9] 87 % of control | [10] 86 % of control | [14] 91 % of control

C=C1ON(C)C(c2ccccc2)C1S(=O)(=O)c1ccccc1 (stereo not drawn)
inactive: dose: 60.0 mg/kg/injection, schedule: Q01DX005 (ip), vehicle: Klucel (hydroxypropylcellulose) (HPC) 110 % of control | dose: 120.0 mg/kg/injection, schedule: Q01DX005 (ip), vehicle: Klucel (hydroxypropylcellulose) (HPC) 105 % of control | dose: 240.0 mg/kg/injection, schedule: Q01DX005 (ip), vehicle: Klucel (hydroxypropylcellulose) (HPC) 98 % of control

O=S(=O)(O)c1c(O)c2ccccc2c2nc3ccccc3nc12
inactive: dose: 50.0 mg/kg/injection, schedule: Q01DX007 (ip), vehicle: saline 105 % of control | dose: 100.0 mg/kg/injection, schedule: Q01DX007 (ip), vehicle: saline 87 % of control

CNC(=S)SSC(=S)NCCNC(=S)SSC(=S)NC
inactive: [2] 99 % of control | [3] 106 % of control | [4] 101 % of control

O=C(O)C1CCCN1C(=O)OCC1c2ccccc2-c2ccccc21 (stereo not drawn)
inactive: [11] 99 % of control | [12] 99 % of control | [13] 95 % of control

CCOC(CN(C)C)C(Cl)(Cl)Cl (stereo not drawn)
inactive: [5] 103 % of control | [6] 103 % of control | [7] 88 % of control | [8] 108 % of control

CC(=O)Nc1ccc(N=Nc2c(S(=O)(=O)O)cc3cc(NC(C)=O)ccc3c2O)cc1
inactive: [19] 98 % of control and 100 % of control | [20] 100 % of control and 103 % of control | [21] 99 % of control

CN(C)Cc1cccc[c]1[Sn]([CH3])([Br])[c]1ccccc1CN(C)C
inactive: [1] 101 % of control and 113 % of control and 88 % of control

O=C1c2ccccc2-c2c1c1ccccc1c(=O)n2CCO
inactive: [2] 96 % of control | [3] 94 % of control | [4] 105 % of control

COc1cc(Cl)nc(OC)n1
inactive: [18] 108 % of control | [15] 89 % of control | [16] 103 % of control | [17] 103 % of control
